These compounds were tested against T1, human capsaicin receptor (Homo sapiens, UniProt Q8NER1) (assay: Calcium mobilization assay, determination of antagonist activity (Example 6)). Conditions: cells expressing human capsaicin receptor, capsaicin-induced fluorescence response; read-out: IC50.
T1 construct: pBK-CMV expression construct encoding the full length human capsaicin receptor; expressed in transfected cells
Type: cell-based
Description: A cDNA encoding full length human capsaicin receptor (SEQ ID NO:1, 2 or 3 of U.S. Pat. No. 6,482,611) is subcloned in the plasmid pBK-CMV (Stratagene, La Jolla, Calif.) for recombinant expression in mammalian cells.
Human embryonic kidney (HEK293) cells are transfected with the pBK-CMV expression construct encoding the full length human capsaicin receptor using standard methods. The transfected cells are selected for two weeks in media containing G418 (400 μg/ml) to obtain a pool of stably transfected cells. Independent clones are isolated from this pool by limiting dilution to obtain clonal stable cell lines for use in subsequent experiments.
Cells transfected with expression plasmids (as described in Example 4) and thereby expressing human capsaicin receptor are seeded and grown to 70-90% confluency in FALCON black-walled, clear-bottomed 96-well plates (#3904, BECTON-DICKINSON, Franklin Lakes, N.J.). The culture medium is emptied from the 96 well plates and FLUO-3 AM calcium sensitive dye (Molecular Probes, Eugene, Oreg.) is added to each well (dye solution: 1 mg FLUO-3 AM, 440 μl DMSO and 440 μl 20% pluronic acid in DMSO diluted 1:250 in Krebs-Ringer HEPES (KRH) buffer (25 mM HEPES, 5 mM KCl, 0.96 mM NaH2PO4, 1 mM MgSO4, 2 mM CaCl2, 5 mM glucose, 1 mM probenecid, pH 7.4), 50 μl diluted solution per well). Plates are covered with aluminum foil and incubated at 37° C. for 1-2 hours in an environment containing 5% CO2. After the incubation, the dye is emptied from the plates, and the cells are washed once with KRH buffer, and resuspended in KRH buffer.
To measure the ability of a test compound to agonize or antagonize a calcium mobilization response in cells expressing capsaicin receptors to capsaicin or other vanilloid agonist, the EC50 of the agonist capsaicin is first determined. An additional 20 μl of KRH buffer and 1 μl DMSO is added to each well of cells, prepared as described above. 100 μl capsaicin in KRH buffer is automatically transferred by the FLIPR instrument to each well. Capsaicin-induced calcium mobilization is monitored using either FLUOROSKAN ASCENT (Labsystems; Franklin, Mass.) or FLIPR (fluorometric imaging plate reader system; Molecular Devices, Sunnyvale, Calif.) instruments. Data obtained between 30 and 60 seconds after agonist application are used to generate an 8-point concentration response curve, with final capsaicin concentrations of 1 nM to 3 μM. KALEIDAGRAPH software (Synergy Software, Reading, Pa.) is used to fit the data to the equation: y=a*(1/(1+(b/x)^c)) to determine the 50% excitatory concentration (EC50) for the response. In this equation, y is the maximum fluorescence signal, x is the concentration of the agonist or antagonist (in this case, capsaicin), a is the Emax, b corresponds to the EC50 value and c is the Hill coefficient. Determination of Agonist Activity
Test compounds are dissolved in DMSO, diluted in 20 μl KRH buffer so that the final concentration of test compounds in the assay well is between 1 μM and 5 μM, and added to cells prepared as described above. The 96 well plates containing prepared cells and test compounds are incubated in the dark, at room temperature for 0.5 to 6 hours. It is important that the incubation not continue beyond 6 hours. Just prior to determining the fluorescence response, 100 μl capsaicin in KRH buffer at twice the EC50 concentration determined as described above is automatically added by the FLIPR instrument to each well of the 96 well plate for a final sample volume of 200 μl and a final capsaicin concentration equal to the EC50. The final concentration of test compounds in the assay wells is between 1 μM and 5 μM. […] The concentration of antagonist required to provide a 50% decrease, relative to the response observed in the presence of capsaicin and without antagonist, is the IC50 for the antagonist, and is preferably below 1 micromolar, 100 nanomolar, 10 nanomolar or 1 nanomolar.

T1 sequence (Q8NER1 whole entry): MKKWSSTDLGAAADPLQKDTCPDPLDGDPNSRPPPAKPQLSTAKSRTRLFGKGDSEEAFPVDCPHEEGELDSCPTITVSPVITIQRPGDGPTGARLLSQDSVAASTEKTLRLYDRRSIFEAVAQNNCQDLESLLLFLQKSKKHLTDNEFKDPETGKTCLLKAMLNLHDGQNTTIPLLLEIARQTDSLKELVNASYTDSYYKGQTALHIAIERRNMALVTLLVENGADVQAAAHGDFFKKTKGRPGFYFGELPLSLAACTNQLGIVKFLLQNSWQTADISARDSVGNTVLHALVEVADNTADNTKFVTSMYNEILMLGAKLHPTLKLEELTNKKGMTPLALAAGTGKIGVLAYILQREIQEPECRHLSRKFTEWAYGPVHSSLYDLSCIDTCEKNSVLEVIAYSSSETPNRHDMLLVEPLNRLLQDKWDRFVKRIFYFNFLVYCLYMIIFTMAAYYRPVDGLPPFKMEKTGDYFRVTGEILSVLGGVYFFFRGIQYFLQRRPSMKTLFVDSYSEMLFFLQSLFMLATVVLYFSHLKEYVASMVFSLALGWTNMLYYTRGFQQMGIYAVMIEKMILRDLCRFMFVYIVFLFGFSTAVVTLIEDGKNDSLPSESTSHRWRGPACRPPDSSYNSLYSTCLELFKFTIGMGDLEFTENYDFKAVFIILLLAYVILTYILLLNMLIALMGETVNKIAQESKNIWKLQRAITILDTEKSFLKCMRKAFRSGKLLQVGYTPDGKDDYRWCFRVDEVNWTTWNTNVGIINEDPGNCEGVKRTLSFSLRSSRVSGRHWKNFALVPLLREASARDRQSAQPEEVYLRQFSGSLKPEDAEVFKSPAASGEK

IC50, ≤ 100 nM:
CCn1cnc2c(=O)n(-c3ccc(Cl)cc3)c(CC(C)C(F)(F)F)nc21 (stereo not shown) [Compound 8, 1-(4-chlorophenyl)-9-ethyl-2-(3,3,3-trifluoro-2-methylpropyl)-1,9-dihydro-6H-purin-6-one]
CC(Cc1nc2c(ncn2C)c(=O)n1-c1ccc(Cl)cc1)C(F)(F)F (stereo not shown) [Compound 9, 1-(4-chlorophenyl)-9-methyl-2-(3,3,3-trifluoro-2-methylpropyl)-1,9-dihydro-6H-purin-6-one]
CCn1cnc2c(=O)n(-c3ccc(F)cc3)c(CC(C)C(F)(F)F)nc21 (stereo not shown) [Compound 10, 9-ethyl-1-(4-fluorophenyl)-2-(3,3,3-trifluoro-2-methylpropyl)-1,9-dihydro-6H-purin-6-one]
CCn1cnc2c(=O)n(-c3ccc(Cl)cc3)c(CC(C)CC(F)(F)F)nc21 (stereo not shown) [Compound 11, 1-(4-chlorophenyl)-9-ethyl-2-(4,4,4-trifluoro-2-methylbutyl)-1,9-dihydro-6H-purin-6-one]
CC(Cc1nc2c(ncn2C)c(=O)n1-c1ccc(Cl)cc1)CC(F)(F)F (stereo not shown) [Compound 12, 1-(4-chlorophenyl)-9-methyl-2-(4,4,4-trifluoro-2-methylbutyl)-1,9-dihydro-6H-purin-6-one]
CCn1cnc2c(=O)n(-c3ccc(F)cc3)c(CC(C)CC(F)(F)F)nc21 (stereo not shown) [Compound 13, 9-ethyl-1-(4-fluorophenyl)-2-(4,4,4-trifluoro-2-methylbutyl)-1,9-dihydro-6H-purin-6-one]
CC(Cc1nc2c(ncn2C)c(=O)n1-c1ccc(F)cc1)CC(F)(F)F (stereo not shown) [Compound 14, 1-(4-fluorophenyl)-9-methyl-2-(4,4,4-trifluoro-2-methylbutyl)-1,9-dihydro-6H-purin-6-one]
CC(Cc1nc2c(ncn2C2CC2)c(=O)n1-c1ccc(Cl)cc1)CC(F)(F)F (stereo not shown) [Compound 15, 1-(4-chlorophenyl)-9-cyclopropyl-2-(4,4,4-trifluoro-2-methylbutyl)-1,9-dihydro-6H-purin-6-one]
CCn1cnc2c(=O)n(-c3ccc(Cl)cc3)c(CCC(C)C(F)(F)F)nc21 (stereo not shown) [Compound 16, 1-(4-chlorophenyl)-9-ethyl-2-(4,4,4-trifluoro-3-methylbutyl)-1,9-dihydro-6H-purin-6-one]
CC(CCc1nc2c(ncn2C)c(=O)n1-c1ccc(Cl)cc1)C(F)(F)F (stereo not shown) [Compound 17, 1-(4-chlorophenyl)-9-methyl-2-(4,4,4-trifluoro-3-methylbutyl)-1,9-dihydro-6H-purin-6-one]
CCn1cnc2c(=O)n(-c3ccc(F)cc3)c(CCC(C)C(F)(F)F)nc21 (stereo not shown) [Compound 18, 9-ethyl-1-(4-fluorophenyl)-2-(4,4,4-trifluoro-3-methylbutyl)-1,9-dihydro-6H-purin-6-one]
CC(CCc1nc2c(ncn2C)c(=O)n1-c1ccc(F)cc1)C(F)(F)F (stereo not shown) [Compound 19, 1-(4-fluorophenyl)-9-methyl-2-(4,4,4-trifluoro-3-methylbutyl)-1,9-dihydro-6H-purin-6-one]
CC(Cc1nc2c(ncn2CC(F)(F)F)c(=O)n1-c1ccc(Cl)cc1)CC(F)(F)F (stereo not shown) [Compound 20, 1-(4-chlorophenyl)-9-(2,2,2-trifluoroethyl)-2-(4,4,4-trifluoro-2-methylbutyl)-1,9-dihydro-6H-purin-6-one]
CC(Cc1nc2c(ncn2CC(F)F)c(=O)n1-c1ccc(Cl)cc1)CC(F)(F)F (stereo not shown) [Compound 21, 1-(4-chlorophenyl)-9-(2,2-difluoroethyl)-2-(4,4,4-trifluoro-2-methylbutyl)-1,9-dihydro-6H-purin-6-one]
CC(Cc1nc2c(ncn2CC(F)F)c(=O)n1-c1ccc(Cl)cc1)C(F)(F)F (stereo not shown) [Compound 22, 1-(4-chlorophenyl)-9-(2,2-difluoroethyl)-2-(3,3,3-trifluoro-2-methylpropyl)-1,9-dihydro-6H-purin-6-one]
CC(CCc1nc2c(ncn2CC(F)F)c(=O)n1-c1ccc(Cl)cc1)C(F)(F)F (stereo not shown) [Compound 23, 1-(4-chlorophenyl)-9-(2,2-difluoroethyl)-2-(4,4,4-trifluoro-3-methylbutyl)-1,9-dihydro-6H-purin-6-one]
CC(Cc1nc2c(ncn2CC(F)(F)F)c(=O)n1-c1ccc(Cl)cc1)C(F)(F)F (stereo not shown) [Compound 24, 1-(4-chlorophenyl)-9-(2,2,2-trifluoroethyl)-2-(3,3,3-trifluoro-2-methylpropyl)-1,9-dihydro-6H-purin-6-one]
CC(CCc1nc2c(ncn2CC(F)(F)F)c(=O)n1-c1ccc(Cl)cc1)C(F)(F)F (stereo not shown) [Compound 25, 1-(4-chlorophenyl)-9-(2,2,2-trifluoroethyl)-2-(4,4,4-trifluoro-3-methylbutyl)-1,9-dihydro-6H-purin-6-one]
CC(Cc1nc2c(ncn2CC(F)F)c(=O)n1-c1ccc(F)cc1)CC(F)(F)F (stereo not shown) [Compound 26, 9-(2,2-difluoroethyl)-1-(4-fluorophenyl)-2-(4,4,4-trifluoro-2-methylbutyl)-1,9-dihydro-6H-purin-6-one]
CC(CCc1nc2c(ncn2CC(F)F)c(=O)n1-c1ccc(F)cc1)C(F)(F)F (stereo not shown) [Compound 27, 9-(2,2-difluoroethyl)-1-(4-fluorophenyl)-2-(4,4,4-trifluoro-3-methylbutyl)-1,9-dihydro-6H-purin-6-one]
CC(CCc1nc2c(ncn2C)c(=O)n1-c1ccc(C#N)cc1)C(F)(F)F (stereo not shown) [Compound 28, 4-[9-methyl-6-oxo-2-(4,4,4-trifluoro-3-methylbutyl)-6,9-dihydro-1H-purin-1-yl]benzonitrile]
CC(Cc1nc2c(ncn2C)c(=O)n1-c1ccc(C#N)cc1)CC(F)(F)F (stereo not shown) [Compound 29, 4-[9-methyl-6-oxo-2-(4,4,4-trifluoro-2-methylbutyl)-6,9-dihydro-1H-purin-1-yl]benzonitrile]
C[C@H](Cc1nc2c(ncn2C)c(=O)n1-c1ccc(Cl)cc1)CC(F)(F)F [Compound 30, 1-(4-chlorophenyl)-9-methyl-2-[(2R)-4,4,4-trifluoro-2-methylbutyl]-1,9-dihydro-6H-purin-6-one]
CCn1cnc2c(=O)n(-c3ccc(C#N)cc3)c(CC(C)CC(F)(F)F)nc21 (stereo not shown) [Compound 31, 4-[9-ethyl-6-oxo-2-(4,4,4-trifluoro-2-methylbutyl)-6,9-dihydro-1H-purin-1-yl]benzonitrile]
C[C@@H](CCc1nc2c(ncn2C)c(=O)n1-c1ccc(Cl)cc1)C(F)(F)F [Compound 32, 1-(4-chlorophenyl)-9-methyl-2-[(3S)-4,4,4-fluoro-3-methylbutyl]-1,9-dihydro-6H-purin-6-one]
C[C@H](CCc1nc2c(ncn2C)c(=O)n1-c1ccc(Cl)cc1)C(F)(F)F [Compound 33, 1-(4-chlorophenyl)-9-methyl-2-[(3R)-4,4,4-fluoro-3-methylbutyl]-1,9-dihydro-6H-purin-6-one]

Same assay, conditions: cells expressing human capsaicin receptor, capsaicin-induced fluorescence response; read-out: IC50 determined as described in Example 6

IC50, ≤ 100 nM:
C[C@H](Cc1nc2c(ncn2C)c(=O)n1-c1ccc(Cl)cc1)C(F)(F)F [Compound 6, (R)-1-(4-Chlorophenyl)-9-methyl-2-(3,3,3-trifluoro-2-methylpropyl)-1H-purin-6(9H)-one]
CCn1cnc2c(=O)n(-c3ccc(Cl)nc3)c(CC(C)C(F)(F)F)nc21 (stereo not shown) [Compound 7, 1-(6-chloropyridin-3-yl)-9-ethyl-2-(3,3,3-trifluoro-2-methylpropyl)-1,9-dihydro-6H-purin-6-one]

— patent US20080090845A1, “Haloalkyl-substituted pyrimidinone derivatives” (Neurogen Corporation, priority 2006, published 2008)
